From patent publication US12065416B2, “cGAS antagonist compounds” (IMMUNESENSOR THERAPEUTICS, INC., priority 2016, dated 2024)

Molecular target: T1, recombinant cGAS (aa147-522) (Homo sapiens, UniProt Q8N884)
T1 construct: recombinant cGAS (aa147-522); His6-SUMO (N, cleaved yes); made in house; host or cells: E. coli BL21/pLys
Assay: In vitro assay for inhibition of cGAS activity (ATP consumption, Kinase Glo)
Assay type: biochemical
Details: 37° C. 20 minutes, read-out: Activity (Inhibition of cGAS enzyme activity in vitro, IC50)
Experimental: cDNA encoding full-length or amino acids 147-520 of human cGAS is inserted into a modified pET28a vector containing an in-frame His6-SUMO tag. The E. coli strain BL21/pLys harboring the plasmid is induced with 0.5 mM IPTG at 18° C. overnight. His6-SUMO tag was removed by a SUMO proease following purification of the HiS-SUMO-cGAS as described previously (Sun et al, 2013, Science 339, 786).
A40 μL mixture containing 1.5 ng/μL of recombinant cGAS (aa147-522) and serial dilutions of a test compound or DMSO was added to a 96-well plate and incubated at 37° C. for 20 minutes. At the end of reaction, 20 μL of Kinase Glo (Promega) was added and chemiluminescence measured with a luminometer. Inhibitory effect of a compound is evaluated by plotting percentage of ATP consumption against logarithm of compound concentrations. IC50 value was calculated using Graphpad (Sigma).

T1 sequence (Q8N884 147-522): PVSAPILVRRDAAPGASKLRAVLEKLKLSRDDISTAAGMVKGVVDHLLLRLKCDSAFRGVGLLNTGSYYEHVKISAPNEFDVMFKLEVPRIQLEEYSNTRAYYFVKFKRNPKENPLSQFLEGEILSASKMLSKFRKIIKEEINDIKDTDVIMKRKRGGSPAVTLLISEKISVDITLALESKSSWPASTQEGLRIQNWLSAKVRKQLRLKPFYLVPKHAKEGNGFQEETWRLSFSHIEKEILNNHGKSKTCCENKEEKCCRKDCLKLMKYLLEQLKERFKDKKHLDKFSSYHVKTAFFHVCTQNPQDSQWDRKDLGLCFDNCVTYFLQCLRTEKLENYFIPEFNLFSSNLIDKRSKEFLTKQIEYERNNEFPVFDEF

IC50 [µM]	Structure (SMILES)
≤ 0.5	O=C1NC(=O)/C(=C/c2ccncc2)S1 [Ex1]
≥ 10	O=C1NC(=O)/C(=C/c2ccncc2)S1 [Ex2]
≤ 0.5	Cc1cnccc1/C=C1\SC(=O)NC1=O [Ex3]
≥ 10	O=C1NC(=O)/C(=C/c2ccncc2C(F)(F)F)S1 [Ex4]
≤ 0.5	O=C1NC(=O)/C(=C2\CCCc3cnccc32)S1 [Ex5]
≥ 10	O=C1NC(=O)/C(=C/c2c[nH]cn2)S1 [Ex6]
≥ 10	O=C1NC(=O)/C(=C/c2cnccn2)S1 [Ex7]
≥ 10	O=C1NC(=O)/C(=C/c2cncnc2)S1 [Ex8]
≥ 10	N=C1NC(=O)/C(=C/c2ccncc2)S1 [Ex9]
≥ 10	CN1C(=O)S/C(=C\c2cc(O)c(O)cc2F)C1=O [Ex10]
≤ 0.5	C/C(=C1/SC(=O)NC1=O)c1ccncc1 [Ex12]
≥ 10	COc1cc2c(cc1O)CC/C2=C1/SC(=O)N(C)C1=O [Ex13]
0.5 to 10	O=C1NC(=O)/C(=C/c2ccncc2)N1 [Ex14]
≥ 10	O=C1NC(=O)/C(=C/c2ccnnc2)N1 [Ex15]
≥ 10	COc1cc(/C=c2\sc3ncc(C)n3c2=O)c(Br)cc1O [Ex17]
≥ 10	C#Cc1cc(O)c(OC)cc1/C=C1\SC(=O)N(C)C1=O [Ex19]
≥ 10	COc1cc(/C(Br)=C2\SC(=O)N(C)C2=O)c(Br)cc1O [Ex20]
≥ 10	COc1cc(/C=C2\SC(=O)N(C)C2=O)c(Br)cc1NS(C)(=O)=O [Ex22]
≥ 10	COc1cc(/C=C2\SC(=O)N(C)C2=O)c(Br)cc1NS(=O)(=O)c1ccccc1 [Ex23]
≥ 10	COc1cc(/C=C2\SC(=O)N(C)C2=O)c(Br)cc1NS(=O)(=O)c1ccc(C)cc1 [Ex24]
0.5 to 10	CN1C(=O)S/C(=C\c2cc3oc(=O)[nH]c3cc2Br)C1=O [Ex25]
0.5 to 10	O=C1/C(=C/c2cc3oc(=O)[nH]c3cc2Br)Sc2ncccc21 [Ex26]
0.5 to 10	CN1C(=O)S/C(=C\c2cc(Oc3ccccc3)c(O)cc2Br)C1=O [Ex27]

IC50 [µM]	Structure (SMILES)
≥ 10	COc1cc(/C=C2\SC(=O)N(C)C2=O)c(F)cc1O [Ex29]
0.5 to 10	COc1cc(/C=C2\SC(=O)N(C)C2=O)c(C(F)(F)F)cc1O [Ex31]
0.5 to 10	COc1cc(/C=C2\SC(=O)N(C)C2=O)c(Br)c(Cl)c1O [Ex34]
0.5 to 10	COc1cc(/C=C2\SC(=O)N(C)C2=O)c(Br)cc1-c1nn[nH]n1 [Ex35]
≥ 10	CN1C(=O)S/C(=C\c2cc3nn[nH]c3cc2Br)C1=O [Ex36]
0.5 to 10	COc1cc(/C=C/C=C2\SC(=O)N(C)C2=O)c(Br)cc1O [Ex37]
0.5 to 10	COc1cc(/C=c2\sc3n(c2=O)CCN=3)c(Br)cc1O [Ex40]
0.5 to 10	COc1cc(/C=c2\sc3n(c2=O)CCN=3)c(Cl)cc1O [Ex41]
0.5 to 10	COc1cc(/C=c2\sc3n(c2=O)CCCN=3)c(Br)cc1O [Ex42]
0.5 to 10	COc1cc(/C=c2\sc3n(c2=O)CCCN=3)c(Cl)cc1O [Ex43]
≤ 0.5	COc1cc(/C=C2\Sc3ncccc3C2=O)c(Br)c(Cl)c1O [Ex46]
0.5 to 10	COc1cc(/C=C2\Sc3ncccc3C2=O)c(Br)c(Br)c1O [Ex47]
≤ 0.5	COc1cc(/C=C2\Sc3ncc(F)cc3C2=O)c(Br)cc1O [Ex48]
≤ 0.5	COc1cc(/C=C2\Sc3cnccc3C2=O)c(Br)cc1O [Ex49]
0.5 to 10	COc1cc(/C=C2\Sc3nccnc3C2=O)c(Br)cc1O [Ex50]
0.5 to 10	COc1cc(/C=C2\Sc3ncncc3C2=O)c(Br)cc1O [Ex51]
0.5 to 10	CN1C(=O)S/C(=C\c2ccc(O)cc2Br)C1=O [Ex52]
≤ 0.5	CN1C(=O)S/C(=C\c2cc(OCc3ccc(NC(=O)c4ccncc4)nc3)c(O)cc2Br)C1=O [Ex54]
0.5 to 10	CN1C(=O)S/C(=C\c2cc(OCc3ccc(NC(=O)c4cccnc4)nc3)c(O)cc2Br)C1=O [Ex55]
0.5 to 10	CN1C(=O)S/C(=C\c2cc(OCc3ccc(NC(=O)c4ccccn4)nc3)c(O)cc2Br)C1=O [Ex56]
0.5 to 10	CCc1cc(/C=C2\SC(=O)N(C)C2=O)c(Br)cc1O [Ex58]
0.5 to 10	CC(=O)c1cc(/C=C2\SC(=O)N(C)C2=O)c(Br)cc1O [Ex59]
0.5 to 10	COc1cc(/C=C2\SC(=O)N(C)C2=O)c(Br)cc1NS(=O)(=O)C(F)(F)F [Ex60]

IC50 [µM]	Structure (SMILES)
0.5 to 10	CC(=O)Nc1ncc(S(=O)(=O)Nc2cc(Br)c(/C=C3\SC(=O)N(C)C3=O)cc2OCc2ccccc2)s1 [Ex62]
0.5 to 10	COc1cc(/C=C2\SC(=O)N(C)C2=O)c(C)cc1O [Ex64]
0.5 to 10	CN1C(=O)S/C(=C\c2cc3cc[nH]c3cc2Br)C1=O [Ex66]
0.5 to 10	CSc1cc(/C=C2\SC(=O)N(C)C2=O)c(Br)cc1O [Ex69]
≤ 0.5	O=C1/C(=C/c2ccc(O)cc2Br)Sc2ncccc21 [Ex71]
≤ 0.5	O=C1/C(=C/c2cc(OCc3ccncc3)c(O)cc2Br)Sc2ncccc21 [Ex72]
0.5 to 10	COc1cc(/C=C2\Sc3ncccc3C2=O)c(Br)cc1Oc1cnc(N)s1 [Ex74]
0.5 to 10	COc1cc(/C=C2\Sc3ncccc3C2=O)c(C)cc1O [Ex76]
≤ 0.5	COc1cc(/C=C2\Sc3ncccc3C2=O)c(I)cc1O [Ex77]
≤ 0.5	O=C1/C(=C/c2cc3nn[nH]c3cc2Br)Sc2ncccc21 [Ex78]
≤ 0.5	CCc1cc(/C=C2\Sc3ncccc3C2=O)c(Br)cc1O [Ex79]
0.5 to 10	CN1C(=O)S/C(=C\c2cc(OCc3cnc(Nc4ccccn4)nc3)c(O)cc2Br)C1=O [Ex83]
≤ 0.5	CC(Oc1cc(/C=C2\SC(=O)N(C)C2=O)c(Br)cc1O)c1cnc(N)nc1 (centres unmarked) [Ex84]
0.5 to 10	CC(C)COc1cc(/C=C2\SC(=O)N(C)C2=O)c(Br)cc1O [Ex85]
0.5 to 10	CN1C(=O)S/C(=C\c2cc(OCc3ccccc3)c(O)cc2Br)C1=O [Ex88]
0.5 to 10	CN1C(=O)S/C(=C\c2cc(OCc3ccccn3)c(O)cc2Br)C1=O [Ex89]
0.5 to 10	CN1C(=O)S/C(=C\c2cc(OCc3ccn(Cc4ccccc4)c(=O)c3)c(O)cc2Br)C1=O [Ex91]
0.5 to 10	CN1C(=O)S/C(=C\c2cc(OCc3cnc(C4CC4)nc3)c(O)cc2Br)C1=O [Ex94]
0.5 to 10	CN1C(=O)S/C(=C\c2cc(OCc3cnc(C4CCNCC4)nc3)c(O)cc2Br)C1=O [Ex95]
0.5 to 10	CN1C(=O)S/C(=C\c2cc(OCc3cnc(-c4cccnc4)nc3)c(O)cc2Br)C1=O [Ex96]
0.5 to 10	CN1C(=O)S/C(=C\c2cc(OCc3cnc(-c4ccccn4)nc3)c(O)cc2Br)C1=O [Ex97]
0.5 to 10	CSc1ncc(COc2cc(/C=C3\SC(=O)N(C)C3=O)c(Br)cc2O)c(Cl)n1 [Ex98]
0.5 to 10	COc1nc(SC)ncc1COc1cc(/C=C2\SC(=O)N(C)C2=O)c(Br)cc1O [Ex99]

IC50 [µM]	Structure (SMILES)
≥ 10	CSc1ncc(COc2cc(/C=C3\SC(=O)N(C)C3=O)c(Br)cc2O)c(SC)n1 [Ex100]
0.5 to 10	CN1C(=O)S/C(=C\c2cc(Oc3ccnc(N)c3)c(O)cc2Br)C1=O [Ex101]
0.5 to 10	CN1C(=O)S/C(=C\c2cc(Oc3ccc([N+](=O)[O-])nc3)c(O)cc2Br)C1=O [Ex102]
0.5 to 10	CC(Oc1cc(/C=C2\SC(=O)N(C)C2=O)c(Br)cc1O)c1cncnc1 (centres unmarked) [Ex103]
0.5 to 10	CC(Oc1cc(/C=C2\SC(=O)N(C)C2=O)c(Br)cc1O)c1cnc(Cl)nc1 (centres unmarked) [Ex104]
0.5 to 10	CNc1ncc(C(C)Oc2cc(/C=C3\SC(=O)N(C)C3=O)c(Br)cc2O)cn1 (centres unmarked) [Ex105]
0.5 to 10	CN1C(=O)S/C(=C\c2cc(OCc3cnc(N)nc3C3CC3)c(O)c(F)c2Br)C1=O [Ex109]
0.5 to 10	CNc1ncc(C(C)Oc2cc(/C=C3\SC(=O)N(C)C3=O)c(Br)c(F)c2O)cn1 (centres unmarked) [Ex111]
≤ 0.5	Nc1ncc(COc2cc(/C=C3\Sc4ncccc4C3=O)c(Br)cc2O)c(C(F)(F)F)n1 [Ex118]
0.5 to 10	CC(Oc1cc(/C=C2\Sc3ncccc3C2=O)c(Br)cc1O)c1cccnc1 (centres unmarked) [Ex119]
≤ 0.5	Cc1ncc(COc2cc(/C=C3\Sc4ncccc4C3=O)c(Br)cc2O)c(C)n1 [Ex120]
≤ 0.5	CC(Oc1cc(/C=C2\Sc3ncccc3C2=O)c(Br)cc1O)c1cnc(Cl)nc1 (centres unmarked) [Ex121]
0.5 to 10	CN1C(=O)S/C(=C\c2cc(OCc3ccc(=O)[nH]c3)c(O)cc2Br)C1=O [Ex125]
0.5 to 10	CN1CCC(COc2cc(/C=C3\SC(=O)N(C)C3=O)c(Br)cc2O)CC1 [Ex126]
0.5 to 10	CN1C(=O)S/C(=C\c2cc(OCC3CCN(C(=O)c4ccccc4)CC3)c(O)cc2Br)C1=O [Ex127]
0.5 to 10	CN1C(=O)S/C(=C\c2cc(OCC3CCN(C(=O)c4ccccn4)CC3)c(O)cc2Br)C1=O [Ex128]
0.5 to 10	CN1C(=O)S/C(=C\c2cc(OCC3CCN(C(=O)c4cccnc4)CC3)c(O)cc2Br)C1=O [Ex129]
0.5 to 10	CN1C(=O)S/C(=C\c2cc(OCc3cncc(N)c3)c(O)cc2Br)C1=O [Ex132]
0.5 to 10	CN1C(=O)S/C(=C\c2cc(OCc3ccnc(N)c3)c(O)cc2Br)C1=O [Ex133]
0.5 to 10	CN1C(=O)S/C(=C\c2cc(OCc3cc[nH]c(=O)c3)c(O)cc2Br)C1=O [Ex134]
0.5 to 10	CN1C(=O)S/C(=C\c2cc(OCc3ccn(-c4ccccc4)c(=O)c3)c(O)cc2Br)C1=O [Ex136]
0.5 to 10	CN1C(=O)S/C(=C\c2cc(OCc3ccnc(N)n3)c(O)cc2Br)C1=O [Ex138]
≤ 0.5	Cc1ncc(COc2cc(/C=C3\SC(=O)N(C)C3=O)c(Br)cc2O)cn1 [Ex142]
